Data published in patent US8178135B2, “Aqueous solution of conophylline and/or conophyllidine” (Keio University, priority 2006, dated 2012).

Assays:
[1] = Dissolution of dried ethanol extract in citric acid / citrate buffer at pH 2.6 to 6.0 (HPLC); assay type: physicochemical
Procedure: (§1) Conophylline and conophyllidine were analyzed by reversed phase HPLC in a high pressure gradient mode using a YMC-Pack Pro C18 RS column (4.6 mm×250 mm; manufactured by YMC Co., Ltd.). The mobile phase consisted of 1% by volume acetic acid as solvent A and acetonitrile as solvent B. The gradient program was set to start with 10% B at a flow rate of 1 ml/min, and the portion of B was increased linearly to 55% over 25 min. The column temperature was 40° C. and UV absorption was monitored at the wavelength of 335 nm. The reference solutions of conophylline and conophyllidine were prepared immediately before measurement and their concentrations were calculated from the absorbance at 335 nm of the solutions prepared.
After some of the dried leaves obtained in Example 1 were pulverized in a mill, 10 g of the pulverized product was extracted with 100 ml of 60% ethanol. Then, the extract was centrifuged and supernatant containing conophylline and conophyllidine was recovered. […] The supernatant was dispensed in 3 ml aliquots into 5 centrifuge tubes and then concentrated to dryness by centrifugation. A buffer (citric acid aqueous solution or sodium citrate buffer) at pH 2.6 to pH 6.0 prepared by appropriately mixing 0.1 M citric acid solution and 0.1 M sodium citrate solution was added at 0.1 ml per tube. After 10 min vigorous stirring, the supernatant was centrifugated again and diluted 10-fold with 50% ethanol. After the dilution, insoluble matter was removed by filtration with a 0.2-μm membrane filter and the contents of conophylline and conophyllidine in the filtrated supernatant were measured by HPLC (Table 2).

[2] = Concentration dissolved after neutralization with pectin or sodium polyacrylate (ethanol crude extract); assay type: physicochemical; conditions: for concentration in solution: Control: filled up only with distilled water, not neutralized
Procedure: Crude extract (250 mg) obtained in Example 1 was dissolved in 5 ml of 0.1 N hydrochloric acid. Then, after insoluble matter was removed by centrifugation (1,500×g, 5 min), the solution was dispensed in 0.5 ml aliquots into test tubes. Then, 10 μl or 100 μl of a 0.2% aqueous solution of pectin (Genue pectin type YM-150-LJ) or 0.2% aqueous solution of sodium polyacrylate (degrees of polymerization=30,000 to 40,000, manufactured by Wako Pure Chemical Industries, Ltd.) was added and filled up to a total volume of 2 ml with distilled water. Meanwhile, only distilled water was added to some of the test tubes in a total volume of […] (without an additive).
(§2) Subsequently, the solution, after being adjusted to pH 6.0 with sodium carbonate aqueous solution, was filled up to a total volume of 2 ml and was centrifuged at 5,000×g for 10 min. The supernatant was recovered and the concentrations of conophylline and conophyllidine were measured. Meanwhile, the concentrations of conophylline and conophyllidine in the solutions, which was made by filled up to a total volume of 2.5 ml only with distilled water, were also measured as the control.

[3] = Concentration dissolved after neutralization with pectin added (partially purified by fractionation); assay type: physicochemical; conditions: for concentration in solution: Control: filled up only with distilled water, not neutralized
Procedure: 10 mg of the dried product obtained in Example 5 was dissolved in 5 ml of 0.1 N hydrochloric acid. This solution was dispensed in 0.5 ml aliquots into test tubes. Then, 10 μl or 100 μl of a 0.25% aqueous solution of pectin (Genue pectin type YM-150-LJ) was added and filled up to a total volume of 2 ml with distilled water. Meanwhile, only distilled water was added to some of the test tubes in a total volume of 2 ml.
as §2, with “volume of 2.5 ml and” for “volume of 2 ml and”

[4] = Amounts in lysate, acid extract and fractions after neutralization to pH 6.0, centrifugation and ultrafiltration (HPLC); assay type: physicochemical; conditions: for amount in Aqueous extract: clarified 0.1 N hydrochloric acid extract; for amount in Lysate: distilled water, 50° C. 30 min, centrifuged supernatant; for amount in Centrifuged supernatant: extract adjusted to pH 6.0, 1,500×g 5 min; for amount in Centrifuged precipitate: extract adjusted to pH 6.0, precipitate dissolved in equal volume of 50% ethanol; for amount in UF filtrate: pH 6.0, passed ultrafiltration membrane; for amount in UF filtrate / amount in UF debris: cut-off 50,000; for amount in UF debris: pH 6.0, retained on ultrafiltration membrane
Procedure: as §1
200 ml of 0.1 N hydrochloric acid was added to 4 g of pulverized product of the dried leaves obtained by the same method as in Example 2, which was then extracted at 50° C. for 30 min. After the debris was removed by paper filtration, the extract was ultrafiltrated with pencil-type module SLP-0053 manufactured by Asahi Kasei Corporation (molecular weight cut-off 10,000) and 165 ml of filtrate was recovered. The pH of the filtrate was adjusted by gradually adding sodium carbonate aqueous solution and the precipitate formed was recovered by centrifugation. The precipitate was then vacuum-evaporated to yield 70 mg of dried product. This dried product contained 9.8 μg of conophylline and 13.3 μg of conophyllidine per mg
The extract was prepared and clarified by removing debris by paper filtration in the same method as in Example 5. Then 100 ml of the clarified extract was adjusted to pH 6.0 with sodium hydroxide aqueous solution. This solution was centrifuged (1,500×g, 5 min) to separate into a supernatant (centrifuged supernatant) and precipitate (centrifuged precipitate). Next, the precipitate was dissolved in an equal volume of 50% ethanol, and the amounts of the active ingredients (conophylline and conophyllidine) in the clarified extract, the centrifuged supernatant, and the centrifuged precipitate were measured by HPLC. Further, the amounts of the active ingredient in the supernatant (lysate) obtained by adding 200 ml of distilled water to 4 g of the pulverized product of the dried leaves of Tabernaemontana divaricata and heating at 50° C. for 30 min, followed by centrifugation at 1,500×g for 5 min were also measured by HPLC.
Further, a sodium hydroxide aqueous solution was added to 1 ml of the above-described clarified extract to adjust pH to 6.0. This extract was treated with an ultrafiltration membrane USY-5 (molecular weight cut-off: 50,000), manufactured by Advantech Co., Ltd. and the filtrate which had passed through the membrane was recovered (UF filtrate). At the same time, the remaining component on the membrane was dissolved and recovered using 1 ml of 50% ethanol (UF debris), and the amounts of the active ingredients in the UF filtrate and UF debris were measured by HPLC (Table 5). As a result, no amount of conophylline or conophyllidine was not detected in the filtrate at all; almost all was present in the fraction which had not permeated through the ultrafiltration membrane.

pancreatic β cells = conditions: cited from earlier work
[5] = pH 6.0, Sodium polyacrylate 10 μg/ml
[6] = pH 6.0, Sodium polyacrylate 100 μg/ml

CC[C@@]12CC(C(=O)OC)=C3Nc4cc5c(cc4[C@@]34CCN(C[C@H]3O[C@H]31)[C@@H]24)[C@@H]1[C@H](O5)[C@@H](O)[C@@]2(CC)CC(C(=O)OC)=C3Nc4c(cc(O)c(OC)c4OC)[C@@]34CCN1[C@@H]24 [Conophylline, conophylline]
content dissolved in supernatant ([1]; Citrate buffer solution, pH 3): 0.866 mg/mL | content dissolved in supernatant ([1]; Citrate buffer solution, pH 4): 0.093 mg/mL | content dissolved in supernatant ([1]; Citrate buffer solution, pH 5): 0.0018 mg/mL | content dissolved in supernatant ([1]; Citrate buffer solution, pH 6): 0.0009 mg/mL | content dissolved in supernatant ([1]; Citric acid, pH 2.6): 1.072 mg/mL | concentration in solution [2]: 8420 ng/mL | concentration in supernatant after neutralization ([2]; pH 6.0, Pectin 10 μg/ml): 1740 ng/mL | concentration in supernatant after neutralization ([2]; pH 6.0, Pectin 100 μg/ml): 3830 ng/mL | concentration in supernatant after neutralization [2, 5]: 1870 ng/mL | concentration in supernatant after neutralization [2, 6]: 4850 ng/mL | concentration in supernatant after neutralization ([2]; pH 6.0, additive None): 2520 ng/mL | concentration in solution [3]: 3700 ng/mL | concentration in supernatant after neutralization ([3]; pH 6.0, Pectin 10 μg/ml): 2100 ng/mL | concentration in supernatant after neutralization ([3]; pH 6.0, Pectin 100 μg/ml): 2600 ng/mL | concentration in supernatant after neutralization ([3]; pH 6.0, pectin 0 μg/ml): 1500 ng/mL | amount in Aqueous extract [4]: 2.62 µg/mL | amount in Lysate [4]: 0.04 µg/mL | amount in Centrifuged supernatant [4]: 2.22 µg/mL | amount in Centrifuged precipitate [4]: 0.48 µg/mL | amount in UF filtrate [4]: 0.00 µg/mL | amount in UF debris [4]: 2.39 µg/mL | regeneration of pancreatic β cells (pancreatic β cells): activate regeneration of pancreatic β cells

CC[C@@]12C=CCN3CC[C@]4(C(=C(C(=O)OC)C1)Nc1cc5c(cc14)[C@H]1[C@@H](O5)[C@H](O)[C@]4(CC)CC(C(=O)OC)=C5Nc6c(cc(O)c(OC)c6OC)[C@@]56CCN1[C@H]46)[C@H]32 (stereo in doubt) [Conophyllidine, conophyllidine]
content dissolved in supernatant ([1]; Citrate buffer solution, pH 3): 0.612 mg/mL | content dissolved in supernatant ([1]; Citrate buffer solution, pH 4): 0.055 mg/mL | content dissolved in supernatant ([1]; Citrate buffer solution, pH 5): 0.0017 mg/mL | content dissolved in supernatant ([1]; Citrate buffer solution, pH 6): 0.0010 mg/mL | content dissolved in supernatant ([1]; Citric acid, pH 2.6): 0.786 mg/mL | concentration in solution [2]: 11830 ng/mL | concentration in supernatant after neutralization ([2]; pH 6.0, Pectin 10 μg/ml): 2420 ng/mL | concentration in supernatant after neutralization ([2]; pH 6.0, Pectin 100 μg/ml): 5190 ng/mL | concentration in supernatant after neutralization [2, 5]: 2500 ng/mL | concentration in supernatant after neutralization [2, 6]: 8450 ng/mL | concentration in supernatant after neutralization ([2]; pH 6.0, additive None): 3270 ng/mL | concentration in solution [3]: 4600 ng/mL | concentration in supernatant after neutralization ([3]; pH 6.0, Pectin 10 μg/ml): 2200 ng/mL | concentration in supernatant after neutralization ([3]; pH 6.0, Pectin 100 μg/ml): 3000 ng/mL | concentration in supernatant after neutralization ([3]; pH 6.0, pectin 0 μg/ml): 1500 ng/mL | amount in Aqueous extract [4]: 2.01 µg/mL | amount in Lysate [4]: 0.02 µg/mL | amount in Centrifuged supernatant [4]: 1.41 µg/mL | amount in Centrifuged precipitate [4]: 0.30 µg/mL | amount in UF filtrate [4]: 0.00 µg/mL | amount in UF debris [4]: 2.19 µg/mL | regeneration of pancreatic β cells (pancreatic β cells): activate regeneration of pancreatic β cells
